Among the test systems are 786-0; UACC-257; IGROV-1; M14; SNB-75; OVCAR-3; A549; LOX IMVI; RPMI-8226; UACC-62; SW-620; SF-268; NCI-H522; NCI-H23; SK-MEL-28; HCT-15; SK-MEL-2; RXF 393.
Holding throughout (test): NCI anticancer screen, dose series, 48 h

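Five concentrations, 48 hours, 96-well plates. GI50: concentration for 50% inhibition of growth.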 Active and inactive are the calls of the source. No stated cut-off is given here; in the data, active = GI50 up to about 1.1 µM and inactive = higher.

Turning to `CC(C)C(Sc1nc(-c2ccccc2)c(-c2ccccc2)[nH]1)C(=O)N/N=C/c1ccc(Cl)cc1` (stereo not drawn), the GI50 with 786-0 was 21.6 µM (inactive); in the test with UACC-257, 21 µM (inactive); with IGROV-1, 24 µM (inactive); in the test on M14, 17.7 µM (inactive); in the test on SNB-75, 29.3 µM (inactive); in the test with OVCAR-3, 18.2 µM (inactive). The GI50 is 30.8 µM (inactive) in the test on A549; 15.5 µM (inactive) in the test on LOX IMVI; 19.7 µM (inactive) in the test with RPMI-8226; 22.8 µM (inactive) in the test with UACC-62; 26.2 µM (inactive) with SW-620; 20.9 µM (inactive) in the test on SF-268. The GI50 is 20.7 µM (inactive) in the test with NCI-H522; 22.3 µM (inactive) with NCI-H23; 21.8 µM (inactive) with SK-MEL-28; 17.5 µM in the test with HCT-15; 17.5 µM (inactive) with SK-MEL-2.

As for `NC1=NN(c2ccccc2)C(=O)C1C(=O)CCC(=O)Nc1cccc(C(F)(F)F)c1` (stereo not drawn), the GI50 with 786-0 was > 100 µM (inactive); with RXF 393, > 100 µM (inactive); with UACC-257, > 100 µM (inactive); in the test on IGROV-1, > 100 µM (inactive); with M14, 41.2 µM (inactive); in the test with OVCAR-3 it was > 100 µM (inactive). Further, the GI50 is > 100 µM (inactive) in the test with A549; 72.4 µM (inactive) in the test on LOX IMVI; 53 µM (inactive) with UACC-62; 42.6 µM (inactive) in the test on SW-620; > 100 µM (inactive) in the test on SF-268; > 100 µM (inactive) in the test with NCI-H23. For the same compound, the figures for the GI50 in the test with SK-MEL-28, in the test on HCT-15 and in the test on SK-MEL-2 were > 100 µM (inactive), 30.8 µM and > 100 µM (inactive), respectively.

For the compound `c1ccc(SCCCC(Sc2ccccc2)Sc2ccccc2)cc1`, the GI50 in the test on 786-0, in the test with RXF 393, with UACC-257, with IGROV-1, in the test on M14 and with SNB-75 was > 100 µM (inactive) throughout. Further, the GI50 in the test with OVCAR-3, in the test on A549, with LOX IMVI, in the test on RPMI-8226, in the test on UACC-62 and with SW-620 was > 100 µM (inactive) throughout. The GI50 in the test on SF-268 was > 100 µM (inactive); in the test on NCI-H23 it was > 100 µM (inactive); in the test with SK-MEL-28, > 100 µM (inactive); with HCT-15, > 100 µM; in the test with SK-MEL-2 it was > 100 µM (inactive).

As for `CC1=CC2C(=O)N(c3ccccc3)C(=O)C2CC1n1[nH]c(=O)n(Cc2ccccc2)c1=O` (stereo not drawn), the GI50 in the test on 786-0, in the test with RXF 393, in the test with UACC-257, in the test with IGROV-1, with M14 and in the test on SNB-75 was > 100 µM (inactive) throughout. Also, the GI50 in the test with OVCAR-3, in the test on A549, with LOX IMVI, in the test on UACC-62, in the test with SW-620 and in the test on SF-268 was > 100 µM (inactive) in each case. Also, the GI50 with NCI-H522 was > 100 µM (inactive); in the test on NCI-H23, > 100 µM (inactive); with SK-MEL-28 it was > 100 µM (inactive); in the test with HCT-15 it was > 100 µM; in the test with SK-MEL-2 it was > 100 µM (inactive).

Turning to `N#CCCC(C#N)(C#N)CCC#N`, the GI50 with 786-0, in the test with UACC-257, in the test with IGROV-1, in the test on M14, in the test with OVCAR-3 and with A549 was > 100 µM (inactive) throughout. The GI50 with LOX IMVI, with RPMI-8226, with UACC-62, in the test with SW-620, in the test on SF-268 and in the test with NCI-H522 was > 100 µM (inactive) each time. The GI50 is > 100 µM (inactive) in the test on NCI-H23, > 100 µM (inactive) in the test on SK-MEL-28 and > 100 µM with HCT-15.

As to `CCP(C)(=O)CC`, the GI50 in the test on 786-0, with RXF 393, with UACC-257, in the test on IGROV-1, with M14 and in the test on SNB-75 was > 100 µM (inactive) throughout. For the same compound, the GI50 in the test on OVCAR-3, in the test with A549, in the test with LOX IMVI, with RPMI-8226, in the test on UACC-62 and with SW-620 was > 100 µM (inactive) each time. Besides, the GI50 in the test with SF-268 was > 100 µM (inactive); in the test with NCI-H23 it was > 100 µM (inactive); in the test on SK-MEL-28 it was > 100 µM (inactive); in the test with HCT-15, > 100 µM; with SK-MEL-2 it was > 100 µM (inactive).

Regarding `C#CCOCn1cnc2c(N)ncnc21`, the GI50 with 786-0, with UACC-257, in the test on IGROV-1, in the test with M14, in the test with SNB-75 and with OVCAR-3 was > 100 µM (inactive) each time. Besides, the GI50 in the test with A549, in the test on LOX IMVI, in the test on RPMI-8226, in the test with UACC-62, in the test with SW-620 and in the test with SF-268 was > 100 µM (inactive) each time. Also, the GI50 in the test with NCI-H522, in the test on NCI-H23, with SK-MEL-28 and with SK-MEL-2 was > 100 µM (inactive) each time.

Turning to `CCC1(c2c(F)c(F)c(N)c(F)c2F)CCC(=O)NC1=O` (stereo not drawn), the GI50 in the test on 786-0 was > 100 µM (inactive); in the test on UACC-257 it was > 100 µM (inactive); in the test with IGROV-1 it was > 100 µM (inactive); in the test with M14 it was > 100 µM (inactive); in the test with SNB-75, 38.7 µM (inactive); in the test with OVCAR-3, > 100 µM (inactive). Further, the GI50 in the test with A549, with LOX IMVI, with RPMI-8226, with UACC-62, with SW-620 and in the test with SF-268 was > 100 µM (inactive) throughout. For the same compound, the GI50 was > 100 µM (inactive) in the test on NCI-H522; > 100 µM (inactive) in the test with NCI-H23; > 100 µM (inactive) in the test with SK-MEL-28; > 100 µM in the test with HCT-15; > 100 µM (inactive) in the test on SK-MEL-2.

Regarding `Cc1ccc(C2=C(c3ccccc3)C(Br)(c3ccccc3)C(c3ccccc3)=C2c2ccc(C)cc2)cc1`, the GI50 in the test with 786-0, in the test with RXF 393, with UACC-257, in the test on IGROV-1, in the test on M14 and in the test on SNB-75 was > 100 µM (inactive) in each case. The GI50 with OVCAR-3, in the test on A549, with RPMI-8226, with UACC-62, in the test on SW-620 and in the test with SF-268 was > 100 µM (inactive) throughout. Moreover, the GI50 in the test on NCI-H522 was > 100 µM (inactive); with NCI-H23, > 100 µM (inactive); in the test with SK-MEL-28, > 100 µM (inactive); in the test on HCT-15 it was > 100 µM; in the test on SK-MEL-2, > 100 µM (inactive).

(Values after ChEMBL document CHEMBL1201862, “PubChem BioAssay data set” (2004).)
